Experiment [1] has as its target T1, γ-secretase (Homo sapiens, UniProt P49768).
T1 construct: endogenous in cells
Nature of the experiment: In vitro γ-secretase activity assay, Aβ42 production (ECL). Particulars: in vitro inhibition of γ-secretase activity that generates Aβ42; 2.5 hr at 37° C., ECL detection. It is filed as biochemical. As for the experimental part:
FIG. 2. In vitro characterization of coumarin-dimer allosteric GSIs against various γ-secretase cleavage products. […] The IC50 values were calculated from the dose response curves using a non-linear regression analysis in Prism software. […] The three β-amyloid-detection in vitro assays were modified from our previously reported assay (21) using a biotinylated substrate that eliminated the requirement of anti-β-amyloid biotinylated antibody. Ruthenylated antibodies that detected the -40, -42, or -38 cleavage site were incorporated to detect proteolysis indicative of γ-secretase activity. In vitro Notch assay utilized a recombinant transmembrane portion of the Notch peptide and anti-Notch1 SM320 antibody in conjunction with ruthenylated anti-rabbit secondary antibodies. Electrochemiluminescence was quantified on an Analyzer (BioVeris).
Briefly, recombinant peptide substrate was incubated with γ-secretase (40 μg/ml) in the presence or absence of test compound. […] The reaction was incubated for 2.5 hr at 37° C. and stopped by adding RIPA buffer (150 mM NaCl, 1.0% NP-40, 0.5% sodium deoxycholate, 0.1% SDS, 50 mM Tris HCl, pH 8.0). […] The amount of product was determined using synthetic peptide or recombinant standards.
(§1) Cell membranes and solubilized γ-secretase were prepared as described previously (36). The in vitro and cell γ-secretase assays detecting either Aβ38, Aβ40, or Aβ42 cleavage were performed similar as previously described (21, 36). Cleaved product was detected using ruthenylated antibodies that recognize specific APP cleavage sites (Aβ31-38*, G2-10*, or G2-11* antibody for Aβ38, Aβ40, or Aβ42 respectively). The Km and Vmax in the presence and absence of γ-secretase inhibitors were analyzed by non-linear curve fit using the software SigmaPlot 8.0 with the Michaelis-Menten equation (v=Vm [S]/(Km+[S]; v: initial rate; Vm: maximum velocity; Km: the Michaelis-Menten constant, S: substrate).

Experiment [2] addresses T1, γ-secretase. Briefly: In vitro γ-secretase activity assay, Aβ40 production (ECL). It is filed as biochemical. The settings on record: for IC50: in vitro inhibition of γ-secretase activity that generates Aβ40, 2.5 hr at 37° C., ECL detection; for Aβ40/Aβ42 ratio: ratio of IC50 for Aβ40 to IC50 for Aβ42. As for the experimental part: FIG. 2. In vitro characterization of coumarin-dimer allosteric GSIs against various γ-secretase cleavage products. The potency of 7 unique coumarin-based γ-secretase inhibitors were evaluated for efficacy against γ-secretase-mediated production of Aβ40, Aβ42, Aβ38, and Notch. Additionally, the pan-GSI Compound E was also examined in these assays. The IC50 values were calculated from the dose response curves using a non-linear regression analysis in Prism software. IC50 values are presented with standard deviation (n=3 for each data point). The three β-amyloid-detection in vitro assays were modified from our previously reported assay (21) using a biotinylated substrate that eliminated the requirement of anti-β-amyloid biotinylated antibody. Ruthenylated antibodies that detected the -40, -42, or -38 cleavage site were incorporated to detect proteolysis indicative of γ-secretase activity. In vitro Notch assay utilized a recombinant transmembrane portion of the Notch peptide and anti-Notch1 SM320 antibody in conjunction with ruthenylated anti-rabbit secondary antibodies. Electrochemiluminescence was quantified on an Analyzer (BioVeris). The selectivity ratio for Aβ42 inhibition over Aβ40 and Notch are indicated in the two far right columns.
The assay protocol employed was a modified version of that described in Li et al., 2000, Proc. Nat'l Acad. Sci. USA 97:6183-643, incorporated herein by reference. Briefly, recombinant peptide substrate was incubated with γ-secretase (40 μg/ml) in the presence or absence of test compound. The reaction mixture contained 0.25% CHAPSO, 0.1 μg/μl BSA, protease inhibitor, 50 mM PIPES, pH 7.0, 5 mM MgCl2, 5 mM CaCl2 and 150 mM KCl. The reaction was incubated for 2.5 hr at 37° C. and stopped by adding RIPA buffer (150 mM NaCl, 1.0% NP-40, 0.5% sodium deoxycholate, 0.1% SDS, 50 mM Tris HCl, pH 8.0). The products were detected with various antibody combinations using electrochemiluminescence (ECL) technology as previously described in Li et al., 2000, Proc. Nat'l Acad. Sci. USA 97:6183-643; Lai et al., 2003, J. Biol. Chem. 278: 22475-22481; and Yin et al., 2007, J. Biol. Chem. 282:23639-23644. The amount of product was determined using synthetic peptide or recombinant standards.
as §1

By IC50 is commonly meant the midpoint of a concentration-inhibition curve. As for `O=C(CC(c1cc(F)c(F)c(F)c1)c1c(O)c2ccccc2oc1=O)NCc1cc(F)cc(F)c1` (stereo not shown) [compound 512], the IC50 on γ-secretase [1] stood at 1.24 µM. For the same compound, at γ-secretase [2], the concentration for half-maximal inhibition (IC50) amounted to 1.86 µM and the Aβ40/Aβ42 ratio came to 1.5.
Take `O=c1oc2ccccc2c(O)c1C1c2c(F)c(F)c(F)c(F)c2Oc2c1c(=O)oc1ccccc21` (stereo not shown) [Compound 423]: the IC50 against γ-secretase [1] came out at 1.3 µM. At γ-secretase [2], the concentration for half-maximal inhibition (IC50) came to 3.4 µM and the Aβ40/Aβ42 ratio is listed as 2.6.
Turning to `O=C(Cc1cc(F)cc(F)c1)c1c(O)c2ccccc2oc1=O` [Compound 560], the figures for the IC50 at γ-secretase [1] and at γ-secretase [2] were 26.9 µM and 89.9 µM, respectively. Besides, at γ-secretase [2], the Aβ40/Aβ42 ratio was determined as 3.3.
With `O=c1[nH]c2ccccc2c(O)c1C(c1cc(F)c(F)c(F)c1)c1c(O)c2ccccc2[nH]c1=O` [Compound 45], half-maximal inhibition against γ-secretase [1] (IC50) was put at 3.4 µM. Besides, on γ-secretase [2], the IC50 was 8 µM and the Aβ40/Aβ42 ratio was 2.4.
For `Cc1ccc2oc(=O)c(C(c3cc(F)c(F)c(F)c3)c3c(O)c4cc(C)ccc4oc3=O)c(O)c2c1` [Compound 197] the same measures were 1.59 µM, 3.26 µM and 2.1.
`O=c1sc2ccccc2c(O)c1C(c1cc(F)c(F)c(F)c1)c1c(O)c2ccccc2sc1=O` [Compound 53]: at γ-secretase [1], the concentration for half-maximal inhibition (IC50) came to 0.5 µM. Further, on γ-secretase [2], the IC50 worked out at 1.3 µM and the Aβ40/Aβ42 ratio is 2.6.
`O=c1oc2ccccc2c(O)c1C1c2cc(F)c(F)cc2Oc2c1c(=O)oc1ccccc21` (stereo not shown) [Compound 369] returned an IC50 against γ-secretase [1] of 0.9 µM. In addition, on γ-secretase [2], the IC50 worked out at 2.6 µM and the Aβ40/Aβ42 ratio came to 2.9.
For `COc1ccc(/C=C/C(c2c(O)c3ccccc3oc2=O)c2c(O)c3ccccc3oc2=O)cc1` [(trans)-258] the same measures were 5.6 µM, 21.5 µM and 3.8.
For `O=c1oc2ccccc2c(O)c1C(c1cccc(C(F)(F)F)c1)c1c(O)c2ccccc2oc1=O` [Compound 209], on γ-secretase [1], the IC50 came out at 0.8 µM. In addition, on γ-secretase [2], the half-inhibitory concentration (IC50) turned out to be 2 µM and the Aβ40/Aβ42 ratio is 2.5.
In the same order, the values of `C/C=C/C=C/C(c1c(O)c2ccccc2oc1=O)c1c(O)c2ccccc2oc1=O` [Compound 257] are 7.3 µM, 9.9 µM and 1.4.
At γ-secretase [1], `CC(=O)Nc1ccc(C(c2c(O)c3ccccc3oc2=O)c2c(O)c3ccccc3oc2=O)cc1` [Compound 732] returned a half-inhibitory concentration (IC50) of 15.9 µM. In addition, on γ-secretase [2], the IC50 amounted to 63.9 µM and the Aβ40/Aβ42 ratio amounted to 4.0.
On to `Oc1ccnc(O)c1C(c1cc(F)c(F)c(F)c1)c1c(O)ccnc1O` [Compound 738], for which the half-inhibitory concentration (IC50) on γ-secretase [1] and on γ-secretase [2] was above 100 µM throughout.
Take `CCc1ccc(C(c2c(O)c3ccccc3oc2=O)c2c(O)c3ccccc3oc2=O)cc1` [Compound 210]: the concentration for half-maximal inhibition (IC50) worked out at 1.9 µM on γ-secretase [1] and 4.6 µM on γ-secretase [2]. Further, the Aβ40/Aβ42 ratio on γ-secretase [2] is 2.4.
The compound `Cc1coc(=O)c(C(c2cc(F)c(F)c(F)c2)c2c(O)c(C)coc2=O)c1O` [compound 668] came in with a concentration for half-maximal inhibition (IC50) against γ-secretase [1] of 1.7 µM. At γ-secretase [2], the IC50 worked out at 4.2 µM and the Aβ40/Aβ42 ratio is reported as 2.5.
For the compound `O=c1oc2ccccc2c(O)c1C(c1ccc(I)cc1)c1c(O)c2ccccc2oc1=O` [compound 731], the IC50 at γ-secretase [1] turned out to be 1.5 µM; at γ-secretase [2], 6.1 µM. On γ-secretase [2], the Aβ40/Aβ42 ratio was 4.1.
In the same order, the values of `O=c1oc2ccccc2c(O)c1C(Cc1ccc(F)cc1)c1c(O)c2ccccc2oc1=O` [Compound 199] are 0.9 µM, 4 µM and 4.4.
With `O=C(Cc1cc(F)cc(F)c1)NCCNC(=O)CC(c1cc(F)c(F)c(F)c1)c1c(O)c2ccccc2oc1=O` (stereo not shown) [compound 520], the results for the IC50 against γ-secretase [1] and on γ-secretase [2] were 4.53 µM and 9.23 µM, respectively. Moreover, the Aβ40/Aβ42 ratio on γ-secretase [2] was found to be 2.0.
Compound `O=c1oc2ccccc2c(O)c1C(c1ccc(Br)cc1)c1c(O)c2ccccc2oc1=O` [compound 730] yielded an IC50 against γ-secretase [1] of 1.2 µM. In addition, at γ-secretase [2], the IC50 turned out to be 1.7 µM and the Aβ40/Aβ42 ratio came to 1.4.
In the same order, the values of `O=c1oc2ccccc2c(O)c1C(c1ccccc1F)c1c(O)c2ccccc2oc1=O` [Compound 734] are 7.2 µM, 1.95 µM and 0.3.
In the same order, the values of `O=c1oc2ccccc2c(O)c1C(c1c(O)c2ccccc2oc1=O)C1CCCCC1` [Compound 733] are 1.2 µM, 4.2 µM and 3.5.
For `O=c1oc2ccc(F)cc2c(O)c1C(c1cc(F)c(F)c(F)c1)c1c(O)c2cc(F)ccc2oc1=O` [Compound 203] the same measures were 0.9 µM, 2.6 µM and 2.9.
With `O=c1oc2ccccc2c(O)c1Cc1cc(F)c(F)c(F)c1` [compound 476], the half-maximal inhibitory concentration (IC50) at γ-secretase [1] and on γ-secretase [2] was above 100 µM each time.
`O=c1oc2ccccc2c(O)c1C(c1cc(F)cc(F)c1)c1c(O)c2ccccc2oc1=O` [Compound 61]: the 50% inhibitory concentration (IC50) at γ-secretase [1] came to 0.17 µM. Further, on γ-secretase [2], the IC50 came to 0.34 µM and the Aβ40/Aβ42 ratio is recorded as 2.0.
In the same order, the values of `O=c1oc2ccccc2c(O)c1C(c1ccc(C(F)(F)F)cc1)c1c(O)c2ccccc2oc1=O` [Compound 728] are 1.6 µM, 7 µM and 4.4.
In the same order, the values of `O=c1oc2ccccc2c(O)c1C(c1ccc(Cl)cc1)c1c(O)c2ccccc2oc1=O` [compound 729] are 1.2 µM, 1.7 µM and 1.4.
For `O=c1oc2ccccc2c(O)c1C(/C=C/c1cc(F)c(F)c(F)c1)c1c(O)c2ccccc2oc1=O` [(trans)-1] the same measures were 2.9 µM, 3.7 µM and 1.3.
`COc1ccc(C(c2c(O)c3ccccc3oc2=O)c2c(O)c3ccccc3oc2=O)cc1F` [Compound 77] came in with a 50% inhibitory concentration (IC50) on γ-secretase [1] of 2.8 µM. In addition, at γ-secretase [2], the concentration for half-maximal inhibition (IC50) was 6.2 µM and the Aβ40/Aβ42 ratio turned out to be 2.2.
For `Nc1ccc2c(c1)Oc1c(c(=O)oc3ccccc13)C2c1c(O)c2ccccc2oc1=O` (stereo not shown) [Compound 372] the same measures were 9.9 µM, 19.4 µM and 2.0.

Values taken from patent publication US20150133493A1, “COUMARIN-BASED COMPOUNDS FOR THE TREATMENT OF ALZHEIMER'S DISEASE AND CANCER” (Sloan-Kettering Institute for Cancer Research, priority 2008, published 2015).
